Source: patent publication US20240293402A1, “FORMULATION CONTAINING DIHYDROPYRIDAZINE-3,5-DIONE DERIVATIVE (as amended)” (CHUGAI SEIYAKU KABUSHIKI KAISHA, priority 2021, published 2024)

Columns and labels:
PiT-1 = biological target: T1, PiT-1 (Homo sapiens, UniProt Q8WUM9); details: general statement, reported in Patent Literatures 6 and 7; cited from earlier work
T1 sequence (Q8WUM9 1-679): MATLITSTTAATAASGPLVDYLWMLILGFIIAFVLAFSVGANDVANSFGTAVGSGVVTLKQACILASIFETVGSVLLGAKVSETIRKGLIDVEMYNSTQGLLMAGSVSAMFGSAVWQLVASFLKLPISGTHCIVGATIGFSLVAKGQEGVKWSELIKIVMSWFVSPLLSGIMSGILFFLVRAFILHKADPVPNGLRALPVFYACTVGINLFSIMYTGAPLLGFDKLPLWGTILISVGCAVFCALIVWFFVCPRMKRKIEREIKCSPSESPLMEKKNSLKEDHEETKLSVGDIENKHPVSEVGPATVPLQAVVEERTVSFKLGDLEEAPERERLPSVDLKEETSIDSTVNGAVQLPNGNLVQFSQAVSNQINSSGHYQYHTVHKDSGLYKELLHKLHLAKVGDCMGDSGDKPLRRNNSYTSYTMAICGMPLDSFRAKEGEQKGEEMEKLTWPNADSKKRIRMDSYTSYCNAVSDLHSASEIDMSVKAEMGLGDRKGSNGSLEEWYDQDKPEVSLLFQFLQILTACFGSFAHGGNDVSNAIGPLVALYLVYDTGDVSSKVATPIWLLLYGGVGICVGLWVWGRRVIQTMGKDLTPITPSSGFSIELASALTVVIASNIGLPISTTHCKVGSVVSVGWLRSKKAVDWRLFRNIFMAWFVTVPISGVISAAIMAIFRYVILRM

Solubility in water = assay type: physicochemical; details: general statement
PiT-2 = biological target: T2, PiT-2 (Homo sapiens, UniProt Q08357); details: general statement, reported in Patent Literatures 6 and 7; cited from earlier work
T2 sequence (Q08357 1-652): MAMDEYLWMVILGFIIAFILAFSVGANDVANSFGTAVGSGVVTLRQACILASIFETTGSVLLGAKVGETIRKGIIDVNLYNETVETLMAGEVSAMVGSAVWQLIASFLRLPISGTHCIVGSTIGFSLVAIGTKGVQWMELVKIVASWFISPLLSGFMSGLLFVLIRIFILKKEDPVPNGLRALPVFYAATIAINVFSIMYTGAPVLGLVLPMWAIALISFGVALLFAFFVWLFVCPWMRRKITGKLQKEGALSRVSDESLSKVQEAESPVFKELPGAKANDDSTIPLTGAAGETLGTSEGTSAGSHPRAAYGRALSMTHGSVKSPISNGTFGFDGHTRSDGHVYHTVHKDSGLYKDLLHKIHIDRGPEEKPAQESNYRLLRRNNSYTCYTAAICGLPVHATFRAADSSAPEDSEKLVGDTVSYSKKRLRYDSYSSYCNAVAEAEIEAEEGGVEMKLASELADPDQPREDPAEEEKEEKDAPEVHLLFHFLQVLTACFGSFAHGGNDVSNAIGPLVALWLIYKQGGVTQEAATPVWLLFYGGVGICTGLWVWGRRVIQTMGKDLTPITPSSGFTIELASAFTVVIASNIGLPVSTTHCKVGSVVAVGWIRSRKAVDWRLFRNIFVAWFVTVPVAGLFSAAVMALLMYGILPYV

NaPi-IIb = biological target: T3, NaPi-IIb (Homo sapiens, UniProt O95436); details: general statement, reported in Patent Literatures 6 and 7; cited from earlier work
T3 sequence (O95436 1-690): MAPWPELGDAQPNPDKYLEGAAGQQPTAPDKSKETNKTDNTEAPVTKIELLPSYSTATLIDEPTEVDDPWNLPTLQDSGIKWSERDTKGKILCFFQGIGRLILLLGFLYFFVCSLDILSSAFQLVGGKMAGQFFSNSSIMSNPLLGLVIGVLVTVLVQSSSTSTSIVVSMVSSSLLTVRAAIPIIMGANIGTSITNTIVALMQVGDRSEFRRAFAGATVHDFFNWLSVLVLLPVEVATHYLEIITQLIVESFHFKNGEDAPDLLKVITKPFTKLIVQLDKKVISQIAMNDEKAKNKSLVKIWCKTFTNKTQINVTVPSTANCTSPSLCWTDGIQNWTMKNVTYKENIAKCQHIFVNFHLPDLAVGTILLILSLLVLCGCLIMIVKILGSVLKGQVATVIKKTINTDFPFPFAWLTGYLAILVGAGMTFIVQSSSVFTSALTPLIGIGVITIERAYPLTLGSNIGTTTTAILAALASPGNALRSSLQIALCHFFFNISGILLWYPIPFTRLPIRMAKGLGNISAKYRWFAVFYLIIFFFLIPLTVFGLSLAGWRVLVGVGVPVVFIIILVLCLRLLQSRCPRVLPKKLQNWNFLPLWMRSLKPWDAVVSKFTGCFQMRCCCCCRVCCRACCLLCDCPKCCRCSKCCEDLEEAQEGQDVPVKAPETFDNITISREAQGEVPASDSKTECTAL

SMILES: COCCN(C)CCOc1ccc(CN2C(=O)C(C(=O)Nc3ccc(C(F)(F)F)cc3-c3cc(C(F)(F)F)ncn3)=C(O)C3(CCCC3)N2C)c(F)c1F.Cc1ccc(S(=O)(=O)O)cc1 [Compound I, 7-[[2,3-difluoro-4-[2-[2-methoxyethyl(methyl)amino]ethoxy]phenyl]methyl]-10-hydroxy-6-methyl-8-oxo-N-[4-(trifluoromethyl)-2-[6-(trifluoromethyl)pyrimidin-4-yl]phenyl]-6,7-diazaspiro[4,5]deca-9-ene-9-carboxamide]
- inhibitory action on PiT-1 (PiT-1): strong inhibitory action
- solubility in water (Solubility in water): hardly soluble in water
- inhibitory action on PiT-2 (PiT-2): strong inhibitory action
- inhibitory action on NaPi-IIb (NaPi-IIb): strong inhibitory action
